The values that follow come from patent publication US8551988B2, “Benzimidazole derivatives: preparation and pharmaceutical applications” (Mei Pharma, Inc., priority 2003, dated 2013).

pIC50: −log10 of the molar value.

HDAC1 enzyme (recombinant GST-HDAC1), sequence (Q13547 whole entry): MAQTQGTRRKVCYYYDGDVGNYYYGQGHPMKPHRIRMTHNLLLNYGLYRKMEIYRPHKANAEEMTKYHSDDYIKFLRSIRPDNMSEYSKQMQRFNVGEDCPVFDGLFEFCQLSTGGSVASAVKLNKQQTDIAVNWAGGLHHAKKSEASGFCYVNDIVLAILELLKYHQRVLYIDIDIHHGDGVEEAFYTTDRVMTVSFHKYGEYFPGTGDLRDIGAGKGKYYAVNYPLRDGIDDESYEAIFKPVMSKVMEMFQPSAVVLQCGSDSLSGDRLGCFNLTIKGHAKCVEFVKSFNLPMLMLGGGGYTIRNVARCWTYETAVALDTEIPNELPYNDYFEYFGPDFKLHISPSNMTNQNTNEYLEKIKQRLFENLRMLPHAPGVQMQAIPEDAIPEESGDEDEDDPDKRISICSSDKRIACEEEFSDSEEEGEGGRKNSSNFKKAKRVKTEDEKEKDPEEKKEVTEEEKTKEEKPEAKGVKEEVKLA

This assay addresses HDAC1 enzyme (recombinant GST-HDAC1) (Homo sapiens (Human), UniProt Q13547). Put plainly: In vitro HDAC assay (BIOMOL fluorescent-based HDAC activity assay), HDAC1. The assay is classed as biochemical. The note with it: read-out: HDAC1 Enzyme Activity IC50.
Protocol: The assay has been carried out in 96 well format and the BIOMOL fluorescent-based HDAC activity assay has been applied. […] Flur de lys Developer was added and the reaction was incubated for 10 min. Briefly, deacetylation of the substrate sensitizes it to the developer, which then generates a fluorophore (symbol). The fluorophore is excited with 360 nm light and the emitted light (460 nm) is detected on a fluorometric plate reader (Tecan Ultra Microplate detection system, Tecan Group Ltd.).
The analytical software, Prism 3.0 has been used to generate IC50 from a series of data.
As for `O=C(/C=C/c1ccc2c(c1)nc(CCc1ccccc1)n2CCc1ccccc1)NO` [Compound 26, N-Hydroxy-3-(1,2-Diphenethyl-1H-benzimidazol-5-yl]-acrylamide], the pIC50 (as a rule, −log10 of the IC50, conventionally taken in molar units) was 6.06.
`CCCn1c(CCc2ccccc2)nc2cc(/C=C/C(=O)NO)ccc21` [Compound 36, N-Hydroxy-3-(2-phenethyl-1-propyl-1H-benzimidazol-5-yl}-acrylamide]: the negative-log IC50 (pIC50) was 6.64.
Regarding `CCCn1cnc2cc(/C=C/C(=O)NO)ccc21` [Compound 37, N-Hydroxy-3-(1-propyl-1H-benzimidazol-5-yl}-acrylamide], the pIC50 was 6.05.
With `CCn1cnc2cc(/C=C/C(=O)NO)ccc21` [Compound 39, N-Hydroxy-3-(1-Ethyl-1H-benzimidazol-5-yl)-acrylamide] the figure was 5.91; with `Cn1cnc2cc(/C=C/C(=O)NO)ccc21` [Compound 49, N-Hydroxy-3-(1-methyl-1H-benzimidazol-5-yl)-acrylamide], 5.85; with `O=C(/C=C/c1ccc2[nH]c(CCc3ccccc3)nc2c1)NO` [Compound 50, N-Hydroxy-3-(2-phenethyl-1H-benzimidazol-5-yl)-acrylamide], 6.76.
In the case of `O=C(/C=C/c1ccc2[nH]cnc2c1)NO` [Compound 51, N-Hydroxy-3-(1H-benzimidazol-5-yl)-acrylamide], the negative-log IC50 (pIC50) was 6.05.
As to `Cn1c(CCCc2ccccc2)nc2cc(/C=C/C(=O)NO)ccc21` [Compound 52, N-Hydroxy-3-[1-methyl-2-(3-phenyl-propyl)-1H-benzimidazol-5-yl]-acrylamide], the pIC50 was 6.80.
With `Cn1c(CNC(=O)Cc2ccccc2)nc2cc(/C=C/C(=O)NO)ccc21` [Compound 54] the figure was 7.00; with `CN(C)CCCCn1c(CCc2ccccc2)nc2cc(/C=C/C(=O)NO)ccc21` [Compound 57, N-Hydroxy-3-[1-(4-dimethylamino-butyl)-2-phenethyl-1H-benzimidazol-5-yl]-acrylamide], 6.82.
For the compound `Cn1c(CNCc2ccccc2)nc2cc(/C=C/C(=O)NO)ccc21` [Compound 60, N-Hydroxy-3-[2-(benzylamino-methyl)-1-methyl-1H-benzimidazol-5-yl]-acrylamide], the negative-log IC50 (pIC50) was 6.94.
`CN(C)CCCn1c(CCc2ccccc2)nc2cc(/C=C/C(=O)NO)ccc21` [Compound 63, N-Hydroxy-3-[1-(3-dimethylamino-propyl)-2-phenethyl-1H-benzimidazol-5-yl]-acrylamide]: the pIC50 is 6.79.
With `CCn1c(CNCc2ccccc2)nc2cc(/C=C/C(=O)NO)ccc21` [Compound 64, N-Hydroxy-3-[2-(benzylamino-methyl)-ethyl-1H-benzimidazol-5-yl]-acrylamide], the negative logarithm of the IC50 (pIC50) is 6.64.
Then `CCn1c(CCNCc2ccccc2)nc2cc(/C=C/C(=O)NO)ccc21` [Compound 74, N-Hydroxy-3-[2-(2-benzylamino-ethyl)-1-ethyl-1H-benzimidazol-5-yl]-acrylamide], with 6.43.
With `O=C(/C=C/c1ccc2c(c1)nc(CCc1ccccc1)n2CCCN1CCCC1)NO` [Compound 82, N-Hydroxy-3-[2-phenethyl-1-(3-pyrrolidin-1-yl-propyl)-1H-benzimidazol-5-yl]-acrylamide] the figure was 6.52; with `CN(C)CC(C)(C)Cn1c(CCc2cccnc2)nc2cc(/C=C/C(=O)NO)ccc21` [Compound 86, N-Hydroxy-3-[1-(3-Dimethylamino-2,2-dimethyl-propyl)-2-(2-pyridin-3-yl-ethyl)-1H-benzimidazol-5-yl]-acrylamide], 6.40.
As to `CN(C)CC(C)(C)Cn1c(SCc2ccccc2)nc2cc(/C=C/C(=O)NO)ccc21` [Compound 89, N-Hydroxy-3-[2-benzylsulfanyl-1-(3-dimethylamino-2-2,dimethyl-propyl)-1H-benzimidazol-5-yl]-acrylamide], the pIC50 was 6.94.
Then `CN(C)CC(C)(C)Cn1c([S+]([O-])Cc2ccccc2)nc2cc(/C=C/C(=O)NO)ccc21` (stereo not drawn) [Compound 91], with 7.52.
